Source: US20170029355A1, “LABILE ESTERS OF AGROCHEMICALS FOR CONTROLLED RELEASE AND REDUCTION OF OFF-SITE MOVEMENT” (Monsanto Technology LLC, priority 2011, published 2017)

Tests used:
[1] = system: broadleaf weeds; assay: Control of broadleaf weeds by ester concentrates (statements of the description); type: in vivo; details: emulsifiable and suspension concentrates; Sesbania macrocarpa, morning glory, velvetleaf, Palmer amaranth, fat hen, sicklepod
[2] = system: soybeans; assay: Humidome volatility injury, ester 32a emulsifiable concentrate (Example 32); details: humidome, dicamba 0.6% and glyphosate 1.2% acid equivalent, 14 days after treatment
Text: […] The mixtures were sprayed at a 10 gallon per acre (93.5 liters per hectare) rate on soil in a plastic container (“humidome”) with a transparent lid. One soil container was sprayed with water as a control. Four glyphosate-tolerant, dicamba-sensitive soy plants between V2 and V3 stage were immediately placed on the sprayed soil and the domes attached to the trays with binder clips. The soy plants were in pots placed directly on the soil but with aluminum foil wrapped around the bottom to prevent uptake of dicamba or dicamba esters through the roots.
The closed containers were held for 24 hours in a growth chamber which was maintained at 35° C. with 40% relative humidity. […] At this time plant injury and growth stage were assessed compared to the control treated with water only.

[3] = system: hemp sesbania; assay: Field testing of emulsifiable concentrates, post-emergent control (Example 40); type: in vivo
Protocol: (§1) Three dicamba esters, 30a, 32a, and 36a, were formulated as emulsifiable concentrates for field testing. All surfactants are commercial materials from Stepan.
(§2) The formulations were tested in the field. Locations and timing were identical for the three esters, but differed slightly for the diglycolamine control. The esters were compared to the diglycolamine salt of dicamba (CLARITY™) for post-emergent control of three broadleaf weeds: velvetleaf, morning glory, and hemp sesbania. Rates of 280 and 560 g dicamba acid equivalent per hectare were used.

[4] = system: morning glory; assay: as above; type: in vivo
Protocol: as §1, §2

[5] = system: velvetleaf; assay: as above; type: in vivo
Protocol: as §1, §2

[6] = In vitro photo-release and hydrolytic release of dicamba in an aqueous medium (Example 35); type: physicochemical; details: 0.01 mM ester, 35° C.
Protocol: This Example describes the determination of photo-lability and hydrolytic lability of dicamba esters in an aqueous medium. 1 mM solutions of the esters were prepared in acetonitrile (or […] solutions of dicamba diesters). The solutions were then diluted with deionized water to a concentration of 0.01 mM (or 0.005 mM for diesters). The solutions were then transferred to quartz tubes and amber bottles and held in a growth chamber by the procedure of Example 26. A 14-hour day was generally used at a constant temperature of 35° C. Hydrolytic activity was assessed by measuring the increase in dicamba concentration after day zero in the amber (dark) bottles. […] Photolysis manifested itself as increased conversion in the quartz tubes compared to the dark control.

[7] = system: velvetleaf; assay: Greenhouse post-emergent control of velvetleaf by emulsifiable concentrates (Example 37); type: in vivo
Outline: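 Photo-labile dicamba ester emulsifiable concentrates sprayed post-emergence in the greenhouse on velvetleaf 10-15 cm tall at 140, 280, 420 and 560 g dicamba equivalent per hectare. Percent control scored three weeks after treatment.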

[8] = system: three broadleaf weeds: velvetleaf, morning glory, and hemp sesbania; assay: Field testing of Example 40, overall post-emergent activity in words; type: in vivo; details: 280 and 560 g dicamba acid equivalent per hectare
Protocol: as §1, §2

[9] = 280 g dicamba acid equivalent per hectare
[10] = 560 g dicamba acid equivalent per hectare

## COc1c(Cl)ccc(Cl)c1C(=O)Oc1ccc(=O)n(CCC(C)=O)n1 [Ester 32a]
[1]
  control of a number of broadleaf weeds in field testing, in words: proven effective
[2]
  average injury to soybeans: 19%
[3]; [9]
  % control 19 days after treatment, 280 g/ha, Hemp sesbania: 76 ± 5%
[3]; [10]
  % control 19 days after treatment, 560 g/ha, Hemp sesbania: 91 ± 8%
[4]; [9]
  % control 19 days after treatment, 280 g/ha, Morning glory: 70 ± 24%
[4]; [10]
  % control 19 days after treatment, 560 g/ha, Morning glory: 87 ± 10%
[5]; [9]
  % control 19 days after treatment, 280 g/ha, Velvetleaf: 59 ± 28%
[5]; [10]
  % control 19 days after treatment, 560 g/ha, Velvetleaf: 68 ± 26%
[6]; amber (dark) bottle, Day 0
  Conversion to Dicamba, Dark, Day 0: 5%
[6]; amber (dark) bottle, Day 1
  Conversion to Dicamba, Dark, Day 1: 12%
[6]; amber (dark) bottle, Day 2
  Conversion to Dicamba, Dark, Day 2: 14%
[6]; amber (dark) bottle, Day 3
  Conversion to Dicamba, Dark, Day 3: 17%
[6]; amber (dark) bottle, Day 4
  Conversion to Dicamba, Dark, Day 4: 22%
[6]; amber (dark) bottle, Day 7
  Conversion to Dicamba, Dark, Day 7: 34%
[6]; amber (dark) bottle, Day 14
  Conversion to Dicamba, Dark, Day 14: 41%
[6]; amber (dark) bottle, Day 21
  Conversion to Dicamba, Dark, Day 21: 55%
[6]; amber (dark) bottle, Day 28
  Conversion to Dicamba, Dark, Day 28: 70%
[6]; quartz tube, 14-hour day, Day 0
  Conversion to Dicamba, Light, Day 0: 5%
[6]; quartz tube, 14-hour day, Day 1
  Conversion to Dicamba, Light, Day 1: 14%
[6]; quartz tube, 14-hour day, Day 2
  Conversion to Dicamba, Light, Day 2: 16%
[6]; quartz tube, 14-hour day, Day 3
  Conversion to Dicamba, Light, Day 3: 18%
[6]; quartz tube, 14-hour day, Day 4
  Conversion to Dicamba, Light, Day 4: 22%
[6]; quartz tube, 14-hour day, Day 7
  Conversion to Dicamba, Light, Day 7: 27%
[6]; quartz tube, 14-hour day, Day 14
  Conversion to Dicamba, Light, Day 14: 44%
[6]; quartz tube, 14-hour day, Day 21
  Conversion to Dicamba, Light, Day 21: 50%
[6]; quartz tube, 14-hour day, Day 28
  Conversion to Dicamba, Light, Day 28: 59%
[7]; Abutilon theophrasti, post-emergence, 504 h, read-out: % Control of velvetleaf, 140 g/ha
  pest or weed control at 140 g/ha: 12.5%
[7]; Abutilon theophrasti, post-emergence, 504 h, read-out: % Control of velvetleaf, 280 g/ha
  pest or weed control at 280 g/ha: 19.2%
[7]; Abutilon theophrasti, post-emergence, 504 h, read-out: % Control of velvetleaf, 420 g/ha
  pest or weed control at 420 g/ha: 33.3%
[7]; Abutilon theophrasti, post-emergence, 504 h, read-out: % Control of velvetleaf, 560 g/ha
  pest or weed control at 560 g/ha: 37.5%
[7]; greenhouse, emulsifiable concentrates
  post-emergent efficacy on velvetleaf compared with the salt, in words: reduced post-emergent efficacy
[8]
  post-emergent activity compared with the dicamba salt, in words: intermediate activity
